In patent US20240417425A1 (priority 2021, published 2024):
Read-outs that look alike come from different tables or passages of the source.

How the values were obtained:
[1] = test system: MHV, FIPV, Middle East respiratory syndrome (MERS)-CoV, VSV, IAV; details: cited from earlier work
NCI-60 cell line panel = test: NCI-60 one-dose cancer cell growth testing; type: cell-based, human; details: FIGS. 13-15
Experimental: The anti-proliferative activity of the target compounds was tested against the NCI-60 cell line panel. The screening was performed at the National Cancer Institute (NCI), Bethesda, Maryland, USA (www.dtp.nci.nih.gov), according to their standard protocol (https://dtp.cancer.gov/discovery_development/nci-60/methodology.htm).
In the anti-cancer studies were performed at the NCI, NIH in the one-dose testing of the NCI-60 project (https://dtp.cancer.gov/discovery_development/nci-60/methodology.htm). The numbers reported are growth relative to the no-drug control, and relative to the time zero number of cells. This allows detection of both growth inhibition (values between 0 and 100) and lethality (values less than 0). For example, a value of 100 means no growth inhibition. A value of 40 would mean 60% growth inhibition. A value of 0 means no net growth over the course of the experiment. A value of −40 would mean 40% lethality. A value of −100 means all cells are dead.

Na^+, K^+-ATPase = details: for Inhibition of brain microsomal Na+,K+-ATPase activity, potency in comparison to Bufalin: FIGS. 2 and 3
quail cardiomyocytes = details: for Effect on cardiomyocytes contractility compared to digoxin: all concentrations tested, 10 minutes and 30 minutes after addition (FIGS. 5, 6)
[2] = test system: Neuroblastoma (SH-SY5Y) cells
in vitro = details: human
[3] = test system: transmissible gastroenteritis coronavirus (TGEV); details: swine testicular (ST) cells; cited from earlier work
[4] = test system: Human respiratory syncytial virus (RSV); details: human small airway epithelial cells; cited from earlier work
[5] = test system: Chikungunya virus (CHIKV); details: human cells; cited from earlier work
[6] = test system: Japanese Encephalitis Virus; details: cited from earlier work
herpes simplex virus = details: cited from earlier work
influenza virus = details: cited from earlier work

SMILES: C[C@]12CC[C@H](O)C[C@H]1CC[C@@H]1[C@@H]2CC[C@]2(C)[C@@H](c3ccc(=O)oc3)CC[C@]12O [Bufalin, bufalin]
- Effect on infection of cells with viruses [1]: inhibited infection of cells with MHV, FIPV, Middle East respiratory syndrome (MERS)-CoV, and VSV, but not IAV

SMILES: C[C@]12CC=CCC1CCC1C2CC[C@]2(C)[C@@H](c3ccc(=O)oc3)CC[C@]12O (stereo partly drawn) [Compound 1, bufalin 2,3-ene]
- Most sensitive cancer cell line (NCI-60 cell line panel): SNB-19
- Inhibition of brain microsomal Na+,K+-ATPase activity, potency in comparison to Bufalin (Na^+, K^+-ATPase): approximately the same potency as Bufalin
- Effect on cardiomyocytes contractility compared to digoxin (quail cardiomyocytes): stronger effect on contractility than digoxin
- Cytotoxic potency in comparison to the other steroids [2]: lower cytotoxic potency
- viability at 5 µM (in vitro): 32.2%
- viability at 25 µM (in vitro): 13.8%
- viability at 50 µM (in vitro): 5.62%
- viability at 100 µM (in vitro): 1.28%

SMILES: C[C@@H]1O[C@@H](O[C@H]2C[C@@H](O)[C@]3(CO)[C@H]4[C@H](O)C[C@]5(C)[C@@H](C6=CC(=O)OC6)CC[C@]5(O)[C@@H]4CC[C@]3(O)C2)[C@H](O)[C@H](O)[C@H]1O [Ouabain, ouabain]
- viability at 5 µM (in vitro): 6.26%
- viability at 25 µM (in vitro): 1.92%
- viability at 50 µM (in vitro): 0.51%
- viability at 100 µM (in vitro): 4.09%
- Effect on infection of cells with viruses ([1]; nM concentrations): inhibited infection of cells with MHV, FIPV, Middle East respiratory syndrome (MERS)-CoV, and VSV, but not IAV
- Effect on TGEV-induced production of IL-6 [3]: inhibit the TGEV-induced production of IL-6 in a dose dependent manner
- Effect on RSV entry [4]: inhibited
- Effect on infection by CHIKV [5]: dose-dependent decrease in infection
- Efficiency against Japanese Encephalitis Virus [6]: robust efficiency against the virus
- Reduction of expression of viral immediate-early and early genes (herpes simplex virus): at least 5 fold
- Effect on influenza virus replication (influenza virus): decrease influenza virus replication

SMILES: C[C@]12CCC=CC1CCC1C2CC[C@]2(C)[C@@H](c3ccc(=O)oc3)CC[C@]12O (stereo partly drawn) [Compound 2, bufalin 3,4-ene]
- Most sensitive cancer cell line (NCI-60 cell line panel): SNB-19
- Inhibition of brain microsomal Na+,K+-ATPase activity, potency in comparison to Bufalin (Na^+, K^+-ATPase): more potent inhibitor
- Inhibition of Na+,K+-ATPase activity at very low concentrations in comparison to Bufalin (Na^+, K^+-ATPase; very low (nanomolar) concentrations): better than Bufalin
- Effect on cardiomyocytes contractility compared to digoxin (quail cardiomyocytes): stronger effect on contractility than digoxin
- Cytotoxic potency in comparison to the other steroids [2]: lower cytotoxic potency
- viability at 5 µM (in vitro): 53.8%
- viability at 25 µM (in vitro): 24.7%
- viability at 50 µM (in vitro): 11.5%
- viability at 100 µM (in vitro): 6.13%

SMILES: NC[C@H](O)c1ccc(O)c(O)c1 [noradrenaline]
- Effect on cardiomyocytes contractility (quail cardiomyocytes; dose-dependently, FIG. 4): increased

SMILES: C[C@H]1O[C@@H](O[C@H]2[C@@H](O)C[C@H](O[C@H]3[C@@H](O)C[C@H](O[C@H]4CC[C@@]5(C)[C@H](CC[C@@H]6[C@@H]5C[C@@H](O)[C@]5(C)[C@@H](C7=CC(=O)OC7)CC[C@]65O)C4)O[C@@H]3C)O[C@@H]2C)C[C@H](O)[C@@H]1O [Digoxin, digoxin]
- viability at 5 µM (in vitro): 23.4%
- viability at 25 µM (in vitro): 1.02%
- viability at 50 µM (in vitro): 0.26%
- viability at 100 µM (in vitro): 2.55%
- Effect on infection by CHIKV [5]: dose-dependent decrease in infection
- Efficiency against Japanese Encephalitis Virus [6]: robust efficiency against the virus
